Where no end group is shown, it is not given here. The star is where a group is joined. For = O=C*
Legend:
murine ERα = experiment: In vivo ERα RT-PCR in 4T1 primary breast tumors of Balb/C mice; set-up: species or system mouse; details: Balb/C mice with 4T1 cells in mammary fat pads, 20 μg every fourth day for 25 days
Description: 2.5×10^4 4T1 breast cancer cells were inoculated into the mammary fat pads of 8-week old Balb/C mice. The animals were subsequently treated with either PBS alone, the Rdm control peptide (20 μg) or Foxy-5 (20 μg), every 4th day, for 25 days. RNA was extracted from primary breast tumors from 4 animals in each group, and subjected to RT-PCR for murine ERα. Shown are primary tumor samples from two animals of each treatment group.
2.5×10^4 4T1 breast cancer cells were inoculated into the mammary fat pads of 8 week old Balb/C mice, that were subsequently treated with either PBS alone, the Rdm control peptide (20 μg), or Foxy-5 (20 μg) every 4th day, for 25 days as described in a previous publication from the inventors (9). RNA was extracted from flash frozen primary breast tumors from 4 animals in each group, and subjected to RT-PCR for murine ERα.

MDA-MB-231 cells = experiment: MTT proliferation assay; assay type: cell-based, human; details: for growth inhibition (MTT) after tamoxifen: MDA-MB-231, stimulation 24 or 48 hours then tamoxifen 5 μM final 20 hours, compared with tamoxifen alone; for effect on breast cancer cell proliferation alone (MTT): without tamoxifen
Description: MDA-MB-231 cells were grown in 6 well plates and stimulated with recombinant Wnt-5a protein (rW5a) or the Wnt-5a derived Foxy-5 peptide (F5), for 24 or 48 h. Cells were treated with tamoxifen for the final 20 h and their apoptotic responses were measured via different methods. […] Arrows highlight apoptotic cells. Bars represent […]. B: Following treatment with rW5a, F5 and tamoxifen, or tamoxifen alone, cells were lysed and subjected to SDS-PAGE, transferred to nitrocellulose membranes and blotted for cleaved caspase 3. C: Treated cells were assessed for their relative caspase 3 activity using fluorometric spectrophotometry. The graph represents 6 separate experiments. * P<0.01, ** P<0.001. D: MTT assays were also performed on MDA-MB-231 cells treated with rWnt-5a, F5 and tamoxifen, or tamoxifen alone (MDA-MB-231 and MCF-7 cells) to assess cell growth inhibition. The graph represents the average of 6 separate experiments, with standard deviation represented by error bars. ** P<0.01, *** P<0.001.
Cell proliferation was measured via MTT assay (Vybrant) following manufacturers instructions. Briefly, MDA-MB-231 and MCF-7 cells were grown in 96 well plates, then either left unstimulated, or stimulated with rWnt-5a (0.6 μg/ml) or Foxy-5 peptide (100 μM) for 24 or 48 hours. Cells were then treated with 5 μM tamoxifen (Sigma) for the final 20 hours. All cells were then labeled with MTT (3-(4,5-dimethylthiazol-2-yl)-2,5-diphenyltetrazolium bromide), incubated at 37° C. for 4 hours and absorbance measured on a Biorad 680 microplate reader (Biorad). The raw absorbance was measured in 9 replicates at 570 nm, and read outs averaged and adjusted accordingly. The experiment was performed 6 times, and results averaged.

ERα = ERα mRNA by RT-PCR in stimulated MDA-MB-231 cells; assay type: cell-based, human; details: time points 6, 12, 18 and 24 hours
Description: Breast cancer cells were grown in 6 well plates and stimulated with recombinant Wnt-5a protein (rW5a) or the Wnt-5a derived Foxy-5 peptide (F5), for 6, 12, 18 or 24 h. RNA was extracted at the end time point, cDNA synthesized and subjected to RT-PCR for ERα and the housekeeping gene, β-actin. A: MDA-MB-231 breast cancer cells, B: MDA-MB-468 breast cancer cells. The positive control (Pos) is RNA extracted from T47D cells which express ERα. The negative control represents a water control.
Stimulation of cells was performed with recombinant Wnt-5a (0.6 μg/ml) and recombinant Wnt-3a (0.1 μg/ml and in a control experiment, 0.6 μg/ml) (R&D Systems Abington, UK) for times as indicated. The Wnt-5a derived formylated hexapeptide, Foxy-5 (formyl-MDGCEL) (SEQ. ID. NO. 1) designed in the laboratory of the inventors, and a formylated random hexapeptide (formyl-MSADVG) (SEQ: ID: NO: 16) were either synthesized by Pepscan Presto (Lelystad, The Netherlands) or Inbiolabs (Tallinn, Estonia). The peptides were purified by RP-HPLC and mass spectrometry, and the >95% pure peptides were synthesized three times. […]
RNA extraction was performed in a designated clean RNA area with the addition of 500 μl TRIzol to each sample. […] The RNA concentration was measured using a Nanodrop Spectrophotometer ND-1000 (Bio-Rad (Hercules Calif.)). […]

formyl-MDGCEL (For-MDGCEL; listed as Homo sapiens) [Foxy-5]
ERα expression in primary tumors (murine ERα): strong ERα expression
growth inhibition (MTT) after tamoxifen (MDA-MB-231 cells): statistically significant growth inhibition
effect on breast cancer cell proliferation alone (MTT) (MDA-MB-231 cells): Neither rWnt-5a nor Foxy-5 had an effect
stimulation time after which ERα mRNA was detected (ERα): 6 h

B1: recombinant Wnt-5a: recombinant Wnt-5a protein (R&D Systems) (protein, UniProt P41221 62-380, looked up)
Protein Wnt-5a: IIGAQPLCSQLAGLSQGQKKLCHLYQDHMQYIGEGAKTGIKECQYQFRHRRWNCSTVDNTSVFGRVMQIGSRETAFTYAVSAAGVVNAMSRACREGELSTCGCSRAARPKDLPRDWLWGGCGDNIDYGYRFAKEFVDARERERIHAKGSYESARILMNLHNNEAGRRTVYNLADVACKCHGVSGSCSLKTCWLQLADFRKVGDALKEKYDSAAAMRLNSRGKLVQVNSRFNSPTTQDLVYIDPSPDYCVRNESTGSLGTQGRLCNKTSEGMDGCELMCCGRGYDQFKTVQTERCHCKFHWCCYVKCKKCTEIVDQFVCK
growth inhibition (MTT) after tamoxifen (MDA-MB-231 cells): statistically significant growth inhibition
effect on breast cancer cell proliferation alone (MTT) (MDA-MB-231 cells): Neither rWnt-5a nor Foxy-5 had an effect
stimulation time after which ERα mRNA was detected (ERα): 12 h
